The text below walks through data of ChEMBL document CHEMBL1201862, “PubChem BioAssay data set” (2004).

Some test systems named below: HCC 2998; RPMI-8226; SNB-19; IGROV-1; HT-29; HOP-92; OVCAR-8; SF-295; Malme-3M; SN12C; MOLT-4; KM12; NCI-H460; HCT-15; EKVX; U-251; SK-MEL-5; ACHN; CCRF-CEM; OVCAR-4.
Test in all cases: growth of human tumour cells (NCI), 48 h

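1) Cells in 96-well plates. 2) Compound, 48 h, 5 concentrations. 3) Linear interpolation between surrounding doses. 4) Unreached endpoint = highest concentration. At the GI50, growth is halved.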 Calls of active or inactive are those of the source. No stated cut-off is given here; in the data, active = GI50 up to about 1.1 µM and inactive = higher.

With `NC(=O)c1csc(C2O[C@@H](COP(=O)(O)OP(=O)(O)OC[C@H]3OC(n4cnc5c(N)ncnc54)[C@H](O)[C@@H]3O)[C@H](O)[C@@H]2O)n1` (stereo not given in full), the GI50 in the experiment with HCC 2998 is > 100 µM (inactive); in the experiment with RPMI-8226 it was 65.2 µM (inactive); with SNB-19, > 100 µM (inactive); in the experiment with IGROV-1, > 100 µM (inactive); in the experiment with HT-29, 87.5 µM (inactive); with HOP-92, > 100 µM (inactive). Further, the GI50 was 73.8 µM (inactive) in the experiment on OVCAR-8; 30 µM (inactive) with SF-295; > 100 µM (inactive) with Malme-3M; > 100 µM (inactive) in the experiment on SN12C; 59.2 µM (inactive) in the experiment with MOLT-4; 88.1 µM (inactive) in the experiment on KM12. The GI50 was 39.6 µM (inactive) with NCI-H460; greater than 100 µM in the experiment with HCT-15; > 100 µM (inactive) with EKVX; 45.8 µM (inactive) in the experiment with U-251; > 100 µM (inactive) with SK-MEL-5; > 100 µM (inactive) with ACHN. In addition, the GI50 with CCRF-CEM was > 100 µM (inactive); in the experiment on OVCAR-4, 73.3 µM (inactive).
